We go through 6 compounds from US7700615B2, “Cell migration inhibiting compositions and methods and compositions for treating cancer” (Avolix Pharmaceuticals, Inc., priority 2002, dated 2010).

The subject of experiment [1] is lung cancer cell line MV522. Description: Cell migration inhibition of lung cancer cells. The format is cell-based. The following applies: compared with untreated control sample. On the procedure: (§1) The guided cell sedimentation apparatus may be used to deposit cells onto a substrate at predetermined locations. A manifold and a substrate as described above may be stored in autoclave bags and steam autoclaved for about 1 hour to sterilize the manifold. The manifold may then be stored at about 4° C. until testing is to be performed. FIG. 3 illustrates a top schematic view of substrate 14. Prior to deposition, the surface of substrate 14 onto which the cells will be deposited is treated according to the experiment to be performed. For example, about 20 μl of a surface coating may be added to each well and incubated for about 1 hour at about 37° C. Just prior to deposition of the cells, Teflon-defined wells 24 on the substrate are hydrated in a culture media appropriate for the cells under study. Approximately 50 μl of culture media is deposited onto each well. […]
(§2) Cell migration may be monitored over time by monitoring the location of individual cells over time or measuring the radius of a circle surrounding the cells over time. […] The peripheral cells are easily detected because the cells can be deposited as a confluent monolayer within a predetermined area. […] Alternatively, designations such as numbers can be assigned to individual cells such that cells may be counted or characterized within the deposited sample of cells. […]

In experiment [2] the test system is breast cancer cell line MDA-MB-231. Description: Cell migration rate dose response, breast cancer cells. The format is cell-based, human. The following applies: concentration of 2.00 μM. On the procedure: as §1, §2
Experiment [3] concerns MDA-MB-231 breast cancer cells. Description: scid mouse human breast tumor model (tumor growth, survival). The format is in vivo, scid mice.
Method: Measuring the synergy of a combination of a chemical and a chemotherapeutic agent may also be performed by evaluating the growth inhibitory effects of a chemotherapeutic agent and a cell migration inhibitor in a severe combined immunodeficient (scid) mouse human tumor model. Such measurements include screening mice for immunoglobulin (Ig) production by an enzyme-linked immunosorbent assay (ELISA). A number of mice are injected with cancer cells in saline using a subcutaneous (SC) injection. Mice with established tumors are selected and stratified according to groups including: a control group, a group treated with a chemotherapeutic agent alone, a group treated with a cell migration inhibitor alone, and one or more groups treated with various combinations of the chemotherapeutic agent and the cell migration inhibitor. The groups designated to be treated with at least the chemotherapeutic agent are injected with the chemotherapeutic agent or the chemotherapeutic agent diluent by intraperitoneal (IP, within abdominal cavity) injection on the first day of treatment. […] Tumor growth may be measured about twice a week throughout the experiment, and the tumor volume may be estimated using the following formula: [(width)^2×length]/2. […]
The scid mouse human breast tumor model was used to evaluated cancer cells of the cell line MDA-MB-231 treated with various compositions. […]
The test system of the next experiment is normal fibroblasts. Description: Cell migration of normal fibroblasts. The format is cell-based. The conditions noted are these: compared with control sample of untreated cells. On the procedure:
(§3) The guided cell sedimentation apparatus may be used to deposit cells onto a substrate at predetermined locations. A manifold and a substrate as described above may be stored in autoclave bags and steam autoclaved for about 1 hour to sterilize the manifold. The manifold may then be stored at about 4° C. until testing is to be performed. FIG. 3 illustrates a top schematic view of substrate 14. Prior to deposition, the surface of substrate 14 onto which the cells will be deposited is treated according to the experiment to be performed. For example, about 20 μl of a surface coating may be added to each well and incubated for about 1 hour at about 37° C. Just prior to deposition of the cells, Teflon-defined wells 24 on the substrate are hydrated in a culture media appropriate for the cells under study. Approximately 50 μl of culture media is deposited onto each well. […] A small aliquot of the culture media (i.e., about 1 μl) is aspirated from each channel of the manifold to eliminate air bubbles within the channels.
The cells are harvested from a culture according to any method known in the art. The cell concentration is adjusted to about 2000 cells/μl. An appropriate cell concentration may vary depending on the cell type. The cells are deposited into each channel in a volume of about 1 μl. The number of cells deposited onto the substrate varies depending upon the physical characteristics of the cells under study. For example, about 500 to about 3000 cells are deposited in each location. The manifold, substrate, and cells should stand undisturbed for a period of time of, for example, about 30 minutes. During the time, the cells will sediment. Sedimentation is generally defined as a process in which gravity causes heavier objects in a suspension to settle to the lowest part of the system. As used herein, sedimentation refers to the process in which gravity causes cells to settle through a standing column of culture media that fills the channels in the manifold. Forces greater than gravity should be avoided to prevent damage of the cells.
The manifold, substrate, and cells are transferred to a controlled temperature and atmosphere tissue culture incubator for several hours to overnight to allow the cells to attach to the surface of the substrate. Appropriate conditions for the incubator are about 37° C., about […] (CO2), and humidified air. The cells sediment onto a defined location at the bottom of the channel. Therefore, when the manifold is removed from the substrate, the cells are deposited as discs 26 of cells at predetermined locations on the substrate, as shown in FIG. 3. Such sedimentation of cells may further include any other steps of the methods as described by Berens. After the cells are attached and the manifold has been removed, the cells in each well may be re-fed with an appropriate solution.
as §2

Experiment [4] deals with melanoma cancer cell line WM1791C. Nature of the experiment: Cell migration rate dose response, melanoma cancer cells. The following applies: concentration of 0.025 μM. The format is cell-based. The procedure: as §1, §2
The subject of experiment [5] is glioma cancer cell line SF 767. Nature of the experiment: Cell migration rate dose response, glioma cancer cells. The format is cell-based. The following applies: concentration of 2.00 μM. On the procedure:
as §1, §2

For experiment [6], the system named is pancreatic cancer cell line MiaPaCa-2. Nature of the experiment: Cell migration inhibition of pancreatic cancer cells. The following applies: compared with untreated control sample. The format is cell-based. On the procedure:
as §1, §2

For a further experiment, the system named is HUVEC cells. Nature of the experiment: Angiogenesis inhibition: cell migration of HUVEC cells. It counts as cell-based, Human. The conditions noted are these: compared with untreated control sample. The procedure: as §3
The cells are harvested from a culture according to any method known in the art. The cell concentration is adjusted to about 2000 cells/μl. An appropriate cell concentration may vary depending on the cell type. The cells are deposited into each channel in a volume of about 1 μl. The number of cells deposited onto the substrate varies depending upon the physical characteristics of the cells under study. For example, about 500 to about 3000 cells are deposited in each location. The manifold, substrate, and cells should stand undisturbed for a period of time of, for example, about 30 minutes. […]
as §2

Molecules are shown by their SMILES.

Consider `Cc1ccc(C(=O)O)cc1[N+](=O)[O-]` [4-methyl-3-nitro-benzoic acid], for which the cell migration rate result was “markedly reduced migration” in experiment [1], “about 75 μm/day” in experiment [2] and “less than 50 μM/day” in experiment [4]. Besides, the “% Survival after 100 days” value in experiment [3] (4-methyl-3-nitro-benzoic acid alone (30 mg/kg, IP qod×5)) worked out at 0%. In the experiment with normal fibroblasts, the “cell migration rate of normal fibroblasts” value is given as “essentially no effect”.

For the compound `CCCC1CCC(C2CCC(C(=O)O)CC2)CC1` (stereo not drawn) [4′-propyl-bicyclohexyl-4-carboxylic acid], in experiment [5], the cell migration rate result is “about 50 μm/day”. Besides, the “cell migration rate of normal fibroblasts” value with normal fibroblasts was “essentially no effect”.

Regarding `COc1ccc(C2C(C(=O)c3ccc(Cl)cc3)N3c4ccccc4C=CC3C2(C#N)C#N)cc1OC` (stereo not drawn) [NS20494, 1-(4-chloro-benzoyl)-2-(3,4-dimethoxy-phenyl)-1,2-dihydro-3aH-pyrrolo[1,2-a]quinoline-3,3-dicarbonitrile], the cell migration rate result (in experiment [6]; in the experiment with HUVEC cells) was “markedly reduced migration” in each case. In the experiment on normal fibroblasts, the “cell migration rate of normal fibroblasts” value is given as “essentially no effect”.

Regarding `CC(=O)O[C@H]1C(=O)[C@@]2(C)[C@H]([C@H](OC(=O)c3ccccc3)[C@]3(O)C[C@H](OC(=O)[C@H](O)[C@@H](NC(=O)c4ccccc4)c4ccccc4)C(C)=C1C3(C)C)[C@]1(OC(C)=O)CO[C@@H]1C[C@@H]2O` [Taxol, paclitaxel, reference compound], in experiment [3] (Taxol alone (10 mg/kg, IP qod×5)), the “% Survival after 100 days” value was determined as 0%.

On to `N#Cc1c(NC(=O)c2cccc(I)c2)sc2c1CCCC2` [compound 301, N-(3-cyano-4,5,6,7-tetrahydro-benzo[b]thiophen-2-yl)-3-iodo-benzamide], for which the “cell migration rate of normal fibroblasts” value with normal fibroblasts was “essentially no effect”. Moreover, in the experiment on HUVEC cells, the cell migration rate result is “markedly reduced migration”.

For `C1=C(c2ccc3c(c2)OCCO3)NN=C(Nc2ccccc2)S1` [compound 302, [5-(2,3-dihydro-benzo[1,4]dioxin-6-yl)-4H-[1,3,4]thiadiazin-2-yl]-phenyl-amine], in the experiment with normal fibroblasts, the “cell migration rate of normal fibroblasts” value was “essentially no effect”. Further, the cell migration rate entry in the experiment with HUVEC cells is recorded as “markedly reduced migration”.
